Experimental data published in US20210196725A1, “TREATMENT OF RELAPSED FOLLICULAR LYMPHOMA” (MEI Pharma, Inc., priority 2018, published 2021).
Marks after values point to notes of the source that are not given here.

Assays:
[1] = test system: patients with follicular lymphoma (FL); assay: Phase 1b study: patients with adverse events of special interest (AESI); format: in vivo, human
Experimental: (§1) Methods: Patients with ECOG ≤2, no prior PI3K therapy and progression of disease (POD) after ≥1 prior therapy were initially enrolled in a dose escalation phase (60-180 mg) then in 60 mg expansion cohorts as monotherapy or in combination with rituximab. Treatment is given in 28-day cycles and continued until POD or unacceptable toxicity. Compound A35 was given initially on a continuous daily dosing schedule. An intermittent dosing schedule on days 1-7 of a 28-day cycle was then evaluated after 2 cycles of daily dosing, or ≥3 cycles of daily dosing to reduce the risk of immune-related adverse events. For this analysis the intermittent schedule (IS) group is defined as patients who received Compound A35 alone or with rituximab daily for 2 cycles then switched to an intermittent schedule of 1 week per cycle, and the continuous schedule (CS) group is defined as patients who never switched to intermittent dosing or switched to intermittent dosing in cycle 4 or later cycles. Toxicity on CS is managed by a switch to IS. Progression of disease (POD) on IS is managed by a switch to CS.

[2] = test system: patients with follicular lymphoma (FL); assay: Phase 1b study of Compound A35 alone or with rituximab: disease response in follicular lymphoma patients; format: in vivo, human
Experimental: In an ongoing Phase 1b study, patients with relapsed B-cell malignancies are administered Compound A35 either as a single agent or in combination with the anti-CD20 antibody rituximab (Rituxan®). A total of 90 subjects have been enrolled in the study to date: • 31 subjects enrolled in a dose escalation cohort of Compound A35 administered as a single agent at a daily dose of 60, 120, and 180 mg; • 21 subjects enrolled in an ongoing expansion cohort of Compound A35 administered as a single agent at 60 mg/day, either on a daily continuous schedule (CS) only or on a daily dosing followed by a switch to an intermittent dosing schedule […] beginning in Cycle 3. • 38 subjects enrolled in a cohort of Compound A35 at 60 mg/day on a CS or IS dosing plus infusional rituximab at a dose of 375 mg/m^2 administered for a total of 8 doses in 6 months
Patients with FL were treated with Compound A35 either alone (N=40) or in combination with the anti-CD20 antibody rituximab (N=14). Most patients in the rituximab combination cohort received Compound A35 by intermittent schedule (IS) after 2 cycles of daily dosing of Compound A35.
as §1

[3] = test system: patients with follicular lymphoma (FL); assay: Phase 1b study: patient disposition on continuous (CS) or intermittent (IS) schedule; format: in vivo, human
Experimental: as §1

[4] = test system: murine B-cell tumors; assay: Retention in murine B-cell tumors (FIG. 4); format: in vivo; conditions: compared to idelalisib (FIG. 4)
[5] = Tumor exposure of Compound A35 (FIG. 3); format: in vivo; conditions: over a 4-hour and 24-hour period (FIG. 3)
[6] = All Grades, All (N = 40), single agent therapy
[7] = All Grades, CS Group (N = 25), single agent therapy
[8] = All Grades, CS Group (N = 31), A35 alone or with rituximab
[9] = All Grades, IS Group (N = 15), single agent therapy
[10] = All Grades, IS Group (N = 23), A35 alone or with rituximab
[11] = Grade 3, CS Group (N = 31), A35 alone or with rituximab
[12] = Grade 3, IS Group (N = 23), A35 alone or with rituximab
[13] = Related Grade 3, All (N = 40), single agent therapy
[14] = Related Grade 3, CS Group (N = 25), single agent therapy
[15] = Related Grade 3, IS Group (N = 15), single agent therapy
[16] = CS Group (N = 25), Compound A35 alone arm
[17] = CS Group (N = 31), A35 alone or with rituximab
[18] = FL patients, A35 alone or with rituximab
[19] = IS Group (N = 15), Compound A35 alone arm
[20] = IS Group (N = 23), A35 alone or with rituximab

In the case of CN1CCC(c2ccccc2CC(C)(C)Nc2nc(N3CCOCC3)nc(-n3c(C(F)F)nc4ccccc43)n2)CC1 [Compound A35], the “AESI: ALT/AST increased” value [1, 6] is reported as 9 (22.5%), the “AESI: Diarrhea/colitis” value [1, 6] is reported as 17 (42.5%) and the “AESI: Mucositis” value [1, 6] is reported as 6 (15.0%). The “AESI: Pneumonia/ Pneumonitis” value [1, 6] was 2 (5.0%), the “AESI: Rash, all types” value [1, 6] was 12 (30.0%) and the “AESI: ALT/AST increased” value [1, 7] was 6 (24.0%). The “AESI: Diarrhea/colitis” value [1, 7] was 10 (40.0%), the “AESI: Mucositis” value [1, 7] was 6 (24.0%) and the “AESI: Pneumonia/ Pneumonitis” value [1, 7] was 2 (8.0%). The “AESI: Rash, all types” value [1, 7] was 11 (44.0%), the “AESI: ALT/AST increased” value [1, 8] was 8 (25.8%) and the “AESI: Diarrhea/colitis” value [1, 8] was 11 (35.5%). For the same compound, the “AESI: Mucositis” value [1, 8] was 6 (19.4%), the “AESI: Pneumonia” value [1, 8] was 2 (6.5%) and the “AESI: Rash, all types” value [1, 8] was 11 (35.5%). For the same compound, the “AESI: ALT/AST increased” value [1, 9] was 3 (20.0%), the “AESI: Diarrhea/colitis” value [1, 9] was 7 (46.7%) and the “AESI: Mucositis” value [1, 9] was 0%. For the same compound, the “AESI: Pneumonia/ Pneumonitis” value [1, 9] was 0%, the “AESI: Rash, all types” value [1, 9] was 1 (6.7%) and the “AESI: ALT/AST increased” value [1, 10] was 7 (30.4%). For the same compound, the “AESI: Mucositis” value [1, 10] was 1 (4.3%), the “AESI: Pneumonia” value [1, 10] was 0% and the “AESI: Rash, all types” value [1, 10] was 2 (8.7%). The “AESI: Diarrhea/colitis” value ([1]; All Grades, IS Group (N = 23), A35 alone or with rituximab, excluded 1 subject with diarrhea after POD and 1 with one-day diarrhea) was 11 (47.8%)*, the “AESI: ALT/AST increased” value [1, 11] was 3 (9.7%) and the “AESI: Diarrhea/colitis” value [1, 11] was 5 (16.1%). For the same compound, the “AESI: Mucositis” value [1, 11] was 1 (3.2%), the “AESI: Pneumonia” value [1, 11] was 2 (6.5%) and the “AESI: Rash, all types” value [1, 11] was 4 (12.9%). The “AESI: ALT/AST increased” value [1, 12] was 1 (4.3%), the “AESI: Diarrhea/colitis” value [1, 12] was 2 (8.7%) and the “AESI: Mucositis” value [1, 12] was 0%. For the same compound, the “AESI: Pneumonia” value [1, 12] was 0%, the “AESI: Rash, all types” value [1, 12] was 0% and the “Grade 3 immune-related adverse events” value ([1]; IS group (N=23) compared to the CS group (N=31)) was “less common”. For the same compound, the “AESI: ALT/AST increased” value [1, 13] was 3 (7.5%), the “AESI: Diarrhea/colitis” value [1, 13] was 6 (15.0%) and the “AESI: Mucositis” value [1, 13] was 1 (2.5%). The “AESI: Pneumonia/ Pneumonitis” value [1, 13] was 2 (5.0%), the “AESI: Rash, all types” value [1, 13] was 4 (10.0%) and the “AESI: ALT/AST increased” value [1, 14] was 3 (12.0%). The “AESI: Diarrhea/colitis” value [1, 14] was 5 (20.0%), the “AESI: Mucositis” value [1, 14] was 1 (4.0%) and the “AESI: Pneumonia/ Pneumonitis” value [1, 14] was 2 (8.0%). For the same compound, the “AESI: Rash, all types” value [1, 14] was 4 (16.0%), the “AESI: ALT/AST increased” value [1, 15] was 0% and the “AESI: Diarrhea/colitis” value [1, 15] was 1 (6.7%). The “AESI: Mucositis” value [1, 15] was 0%, the “AESI: Pneumonia/ Pneumonitis” value [1, 15] was 0% and the “AESI: Rash, all types” value [1, 15] was 0%. The “incidence of immune-related adverse events (irAEs)” value ([1]; intermittent schedule (IS)) was “appears to reduce the incidence”, the “rate of response in POD24 patients” value ([2]; A35 alone or in combination with a CD20 inhibitor, higher than expected with conventional FL therapy) was “very high rate of response” and the “morphologic/metabolic CR” value ([2]; FL patients with follow-up disease assessment, Compound A35 alone) was 20%. For the same compound, the “No. (%) of Subjects with a Response” value ([2]; No POD24, Total (A35 alone and A35 + rituximab cohorts)) was 16 (67%) No. (%), the “No. (%) of Subjects with a Response” value ([2]; No POD24 FL subjects evaluable for response) was 14 (64%) No. (%) and the “No. (%) of Subjects with a Response” value ([2]; POD24, Total (A35 alone and A35 + rituximab cohorts)) was 24 (92%) No. (%). For the same compound, the “No. (%) of Subjects with a Response” value ([2]; POD24 FL subjects evaluable for response) was 16 (100%) No. (%), the “rate of durable responses” value ([2]; R/R FL) was “high rate of durable responses” and the “POD24 subjects with response who had PD” value ([2]; of 24 POD24 subjects who achieved response) was 6 subjects. For the same compound, the “Patient Disposition: Adverse event” value [3, 16] was 3 (12%), the “Patient Disposition: Progressive disease” value [3, 16] was 4 (16%) and the “Patient Disposition: Adverse event” value [3, 17] was 3 (10%). The “Patient Disposition: Progressive disease” value [3, 17] was 4 (13%), the “patients discontinued: POD” value [3, 18] was 9 patients and the “patients discontinued: adverse events (AEs)” value [3, 18] was 4 patients. For the same compound, the “Patient Disposition: Adverse event” value [3, 19] was 1 (7%), the “Patient Disposition: Progressive disease” value [3, 19] was 0% and the “Patient Disposition: Adverse event” value [3, 20] was 1 (4%). For the same compound, the “Patient Disposition: Progressive disease” value [3, 20] was 0 (0%), the “retention in murine B-cell tumors” value [4] was “preferential retention” and the tumor exposure [5] was “preferential tumor exposure”.
